Experimental data as given in patent US9339463B2, “Micronized opioid compositions having a specific particle size distribution” (priority 2007, dated 2016).

Assays:
Format in all cases: physicochemical
[1] = Physical stability on storage: DSC onset melt; conditions: 3 mo
Protocol: The micronized lots may also be analyzed by Differential Scanning Calorimetry (DSC). DSC is performed on a TA instrument Q100 using a heating ramp from 25-235° C. at a rate of 5° C./min. […] The sharp endotherm observed is consistent with a crystalline material and the absence of other thermal events proves that there were no polymorph transformations during melting.
(§1) Samples of Example 2 and additional samples comprising micronized and non-micronized oxycodone useful for exemplary dosage forms are tested for their chemical stability and physical stability. Based on a comparison of stability data from micronized and non-micronized samples stored at both 25° C./60% RH and 40 C.°/75% RH, no differences are observed in the impurity profile through three months of study as shown in Tables 4 and 5 for exemplary lots. The impurities analyzed include (HOXY), 14-Hydroxycodeinone; (DHOXYN), 7,8-Dihydro-8,14-Dihydroxycodeinone; (DHOXY), 7,8-Dihydro-14-hydroxycodeine; (OXYE), Oxycodone ethylenolate; (OXYN), 1-Hydroxyoxycodone and Oxycodone N-oxide. Most of the impurities are found to be below the limit of quantitation (LOQ), except for HOXY and DHOXYN which were unchanged at 0.1%. […] The solid state stability of the micronized oxycodone is monitored for particle size, XRPD, DSC, and microscopy as shown in Table 6.

[2] = Physical stability on storage: particle size (Dv90) by laser diffraction
[3] = Chemical stability on storage: assay and impurities
Protocol: as §1

[4] = Physical stability on storage: microscopy; conditions: 3 mo
Protocol: As a secondary analytical method, the micronized and the non-micronized oxycodone analyzed by laser diffraction with results shown in Table 1, were analyzed by optical microscopy to evaluate particle size and the results are shown in Table 2. Sample aliquots (˜50 mg for micronized and ˜225 mg for non-micronized) were dispersed in 10 ml of sunflower oil and viewed on a Nikon microscope equipped with a 10× objective. Particle size (mean diameter) was determined using Image Pro® Plus software and expressed as a number % undersize. The particle size values determined by optical microscopy as shown in Table 2 are consistent with the laser diffraction particle size data shown in Table 1.
as §1

With COc1ccc2c3c1O[C@H]1C(=O)CC[C@@]4(O)[C@@H](C2)N(C)CC[C@]314 [Lot 3, oxycodone] the “DSC Onset Melt” value ([1]; 25° C./60% RH) was 221.9 °C, the “DSC Onset Melt” value ([1]; 40° C./75% RH) was 221.9 °C and the “Particle size (Dv90)” value ([2]; 25° C./60% RH, 1 month) was 9 μ. For the same compound, the “Particle size (Dv90)” value ([2]; 25° C./60% RH, 3 months) was 10 μ, the “Particle size (Dv90)” value ([2]; 25° C./60% RH, 6 months) was 10 μ and the “Particle size (Dv90)” value ([2]; 25° C./60% RH, 9 months) was 8 μ. For the same compound, the “Particle size (Dv90)” value ([2]; 25° C./60% RH, 12 months) was 8 μ, the “Particle size (Dv90)” value ([2]; 40° C./75% RH, 1 month) was 9 μ and the “Particle size (Dv90)” value ([2]; 40° C./75% RH, 3 months) was 11 μ. For the same compound, the “Particle size (Dv90)” value ([2]; 40° C./75% RH, 6 months) was 10 μ, the “Particle size (Dv90)” value ([2]; Time 0) was 6 μ and the 1-HydroxyOXY ([3]; 5° C./60% RH, 1 mo (Table 4)) was “<LOQ”. The 1-HydroxyOXY ([3]; 5° C./60% RH, 3 mo (Table 4)) was “<LOQ”, the Assay ([3]; 25° C./60% RH, 1 mo) was 98.5% and the “DHOXY (7,8-Dihydro-14-hydroxycodeine)” value ([3]; 25° C./60% RH, 1 mo) was “<LOQ”. The “DHOXYN (7,8-Dihydro-8,14-Dihydroxycodeinone)” value (“DHOXYN” for short) ([3]; 25° C./60% RH, 1 mo) was 0.10%, the “HOXY (14-Hydroxycodeinone)” value ([3]; 25° C./60% RH, 1 mo) was 0.08% and the “OXYE (Oxycodone ethylenolate)” value ([3]; 25° C./60% RH, 1 mo) was “<LOQ”. For the same compound, the OXYN ([3]; 25° C./60% RH, 1 mo) was “<LOQ”, the “Other (impurities; Table 5: >0.05%)” value ([3]; 25° C./60% RH, 1 mo) was “<LOQ” and the Total impurities ([3]; 25° C./60% RH, 1 mo) was 0.18%. The Assay ([3]; 25° C./60% RH, 3 mo) was 98.5%, the “DHOXY (7,8-Dihydro-14-hydroxycodeine)” value ([3]; 25° C./60% RH, 3 mo) was “<LOQ” and the “DHOXYN” value ([3]; 25° C./60% RH, 3 mo) was 0.10%. The “HOXY (14-Hydroxycodeinone)” value ([3]; 25° C./60% RH, 3 mo) was 0.08%, the “OXYE (Oxycodone ethylenolate)” value ([3]; 25° C./60% RH, 3 mo) was “<LOQ” and the OXYN ([3]; 25° C./60% RH, 3 mo) was “<LOQ”. For the same compound, the “Other (impurities; Table 5: >0.05%)” value ([3]; 25° C./60% RH, 3 mo) was “<LOQ”, the Total impurities ([3]; 25° C./60% RH, 3 mo) was 0.18% and the 1-HydroxyOXY ([3]; 40° C./75% RH, 1 mo) was “<LOQ”. The Assay ([3]; 40° C./75% RH, 1 mo) was 100.1%, the “DHOXY (7,8-Dihydro-14-hydroxycodeine)” value ([3]; 40° C./75% RH, 1 mo) was “<LOQ” and the “DHOXYN” value ([3]; 40° C./75% RH, 1 mo) was 0.10%. For the same compound, the “HOXY (14-Hydroxycodeinone)” value ([3]; 40° C./75% RH, 1 mo) was 0.08%, the “OXYE (Oxycodone ethylenolate)” value ([3]; 40° C./75% RH, 1 mo) was “<LOQ” and the OXYN ([3]; 40° C./75% RH, 1 mo) was “<LOQ”. For the same compound, the “Other (impurities; Table 5: >0.05%)” value ([3]; 40° C./75% RH, 1 mo) was “<LOQ”, the Total impurities ([3]; 40° C./75% RH, 1 mo) was 0.18% and the 1-HydroxyOXY ([3]; 40° C./75% RH, 3 mo) was “<LOQ”. The Assay ([3]; 40° C./75% RH, 3 mo) was 99.5%, the “DHOXY (7,8-Dihydro-14-hydroxycodeine)” value ([3]; 40° C./75% RH, 3 mo) was “<LOQ” and the “DHOXYN” value ([3]; 40° C./75% RH, 3 mo) was 0.10%. The “HOXY (14-Hydroxycodeinone)” value ([3]; 40° C./75% RH, 3 mo) was 0.08%, the “OXYE (Oxycodone ethylenolate)” value ([3]; 40° C./75% RH, 3 mo) was “<LOQ” and the OXYN ([3]; 40° C./75% RH, 3 mo) was “<LOQ”. For the same compound, the “Other (impurities; Table 5: >0.05%)” value ([3]; 40° C./75% RH, 3 mo) was “<LOQ”, the Total impurities ([3]; 40° C./75% RH, 3 mo) was 0.18% and the 1-HydroxyOXY ([3]; Time 0) was “<LOQ”. The Assay ([3]; Time 0) was 100.4%, the “DHOXY (7,8-Dihydro-14-hydroxycodeine)” value ([3]; Time 0) was “<LOQ” and the “DHOXYN” value ([3]; Time 0) was 0.11%. The “HOXY (14-Hydroxycodeinone)” value ([3]; Time 0) was 0.07%, the “OXYE (Oxycodone ethylenolate)” value ([3]; Time 0) was “<LOQ” and the OXYN ([3]; Time 0) was “<LOQ”. The “Other (impurities; Table 5: >0.05%)” value ([3]; Time 0) was “<LOQ”, the Total impurities ([3]; Time 0) was 0.18% and the “Microscopy, ≦10 μ” value ([4]; 25° C./60% RH) was 98.3%. The “Microscopy, ≦10 μ” value ([4]; 40° C./75% RH) was 94.5%.
